Data from patent US10220022B2, “Compositions and methods employing Wolbachia FtsZ as a target for Albendazole sulfone” (The Regents of the University of California, priority 2011, dated 2019).

Key:
Wolbachia = Wolbachia titer in Drosophila oogenesis after drug feeding; format: in vivo; settings: 24-hour treatment, counts from single oocyte focal planes; DMSO control 225+/−18
Description: (§1) Drug feeding conditions: Fly feeding we done as previously described.
(§2) Staining: Drosophila Ovary staining was done with PI, anti-tubuli. Drosophila Embryo staining was done with anti-FtsZ. Brugia microfilarial staining was done with PI, anti-tubulin, and anti-FtsZ.
As Albendazole is already a widely used, FDA-approved drug, we proceeded to test it and the primary metabolites Albendazole sulfoxide and Albendazole sulfone for anti-Wolbachia effects in Drosophila oogenesis. This system provides a high-precision method for assessing Wolbachia titer in a well-characterized developmental context.

[1] = system: oocyte microtubule cytoskeleton; experiment: Posterior Wolbachia localization in treated oocytes; format: in vivo; settings: treated Drosophila oocytes; DMSO controls 95%
Description: as §1, §2
(§3) To address whether Albendazole sulfone acts on Wolbachia by disrupting the oocyte microtubule cytoskeleton, a combination of approaches was used. It has previously been shown that Wolbachia concentrate at the oocyte posterior cortex in a microtubule-dependent manner. […] We also examined the cytoskeleton directly by immunolabeling the microtubules.

[2] = system: oocyte microtubule cytoskeleton; experiment: Immunolabeling of oocyte microtubules; format: in vivo, Drosophila; settings: immunolabeling of the microtubules, stage 10A oocytes
Description: as §2, §3

B. malayi microtubules = experiment: Microtubule staining of treated Brugia malayi microfilariae; settings: compound fed to Brugia malayi microfilariae
Description: as §2
(§4) To investigate whether Albendazole sulfone disrupts Walbachia FtsZ, we fed this compound to Brugia malayi microfilariae, which carry Wolbachia as an essential endosymbiont. […] This is consistent with the predicted benzimidazole susceptibility of B. malayi beta tubulin (FIG. 5).
(§5) In view of the above the inventors posed the questions: By what mechanism does Albendazole sulfone act against Wolbachia FtsZ? And is FtsZ disruption a consequence of host microtubule disassembly, or due to a separate effect on FtsZ by Albendazole sulfone? […] To further test whether Wolbachia FtsZ relies on host microtubules, we also treated Brugia with the microtubule-disrupting drug Colchicine.

Wolbachia FtsZ = experiment: FtsZ immunostaining in treated Brugia malayi microfilariae; settings: compound fed to Brugia malayi microfilariae
Description: as §2, §4, §5

beta-tubulin = settings: relative to Albendazole sulfoxide; cited from earlier work
M. tuberculosis FtsZ = M. tuberculosis FtsZ (Mycobacterium tuberculosis, UniProt P9WN95); settings: cited from earlier work
Sequence of M. tuberculosis FtsZ (P9WN95 whole entry): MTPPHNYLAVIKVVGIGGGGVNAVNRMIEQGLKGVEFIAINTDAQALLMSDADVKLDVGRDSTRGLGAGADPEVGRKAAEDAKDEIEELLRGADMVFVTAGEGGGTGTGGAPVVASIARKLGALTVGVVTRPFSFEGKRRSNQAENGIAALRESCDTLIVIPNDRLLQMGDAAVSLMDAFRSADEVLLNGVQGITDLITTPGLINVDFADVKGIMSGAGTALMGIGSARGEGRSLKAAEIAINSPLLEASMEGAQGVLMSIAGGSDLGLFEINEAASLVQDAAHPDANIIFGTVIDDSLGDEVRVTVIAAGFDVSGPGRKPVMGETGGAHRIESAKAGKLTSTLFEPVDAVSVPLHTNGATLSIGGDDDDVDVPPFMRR

[3] = system: Wolbachia-infected JW18 cells; experiment: High-throughput screen for compounds reducing Wolbachia infection of JW18 cells; format: cell-based, Drosophila; settings: 100 uM per well, 5-day incubation at 25 C, 3 replicates
Description: Cells were plated in 384-well, clear bottom plates (Griener Bio-one) pre-coated with 0.5 mg/mL Concanavalin A. JW18 cells were added to 22 columns, and JW18TET cells were added to the remaining 2 columns at a dilution of 6500 cells per well. After the cells adhered to the plates, compounds were transferred into 20 columns of JW18 cells in the center of the plate using a Janus MDT pin tool. The final concentration of compound was 100 uM per well. All treatments were distributed into 3 plate replicates.
After a 5-day incubation with the compounds at 25 C, the cells were prepared for imaging. Cells were fixed for 20 minutes in 4% formaldehyde and rinsed with PBS using an automated BioTek liquid handler. All staining solutions were administered using a Multidrop robot, with extensive rinsing between treatments. The primary antibody, mouse anti histone (MAB052, Millipore), was used at 1:1250 in PBS/0.1% Triton. Secondary antibody goat anti-mouse Alexa 594 (Invitrogen) was used at 1:1250. DAPI was used as a saturated solution, diluted to a final concentration of 1:40. After staining, PBS+Azide was added to all wells of the plates.
Stained treatment plates were imaged using the MetaExpress Micro system (Molecular Devices, Sunnyvale Calif.). 10 images were acquired per well at 40× magnification. These images were next analyzed using customized journaling software provided by Molecular Devices. The journal first masks any areas where clumps of cells are detected, based upon intensity of the Jupiter-GFP. The boundaries of the remaining cells and their nuclei are recognized based upon the Jupiter-GFP and anti-histone stains. A mask is applied to the nuclei, to obscure the hi stone and DAPI signal from those areas. A threshold for DAPI fluorescence detection is set to detect as much Wolbachia as possible in JW18 control cells while minimizing detection of background DAPI signal in JW18TET control cells. Then this cytoplasmic DAPI level, read to indicate Wolbachia, is scored in the cytoplasm of individual cells to determine whether each cell is infected with Wolbachia. The cutoff value distinguishing “infected” from “uninfected” cells is 4000-5000 fluorescence units per cell.
A spreadsheet from the journal indicates the quantity of Wolbachia-infected cells versus total cells measured in each well. A Z′ factor is calculated for each plate based upon the average frequency of cell infection for JW18 and JW18TET control cells. […] An initial hit range is calculated to lie between the JW18 average infection frequency−3 standard deviations, and the average JW18TET infection frequency+3 standard deviations. To further refine identification of hits, we also calculated an average infection frequency for all JW18 cells on the plate (treated or not), as most treatment wells are expected to be indistinguishable from untreated controls. Wells are that lie within 3 standard deviations of the mean are exluded, and remaining wells are classified as hits within that replicate. Hit wells that are identified in at least 2 out of 3 replicates are considered to be finalized hits.
In this screen, 3081 compounds froth the National Cancer Institute were used. […] Cells were incubated for 5 days with each compound, then fixed, stained, and imaged using automated robotics (FIG. 2). Customized analysis software was used to compare the images from compound-treated wells to the control cells to assay for significant changes in the quantity of Wolbachia-infected cells. All treatment plates were run in triplicate.

Streptococcus pyrogenes = settings: prior screen; cited from earlier work

CCCS(=O)(=O)c1ccc2nc(NC(=O)OC)[nH]c2c1 [Albendazole sulfone]
Wolbachia per oocyte (Wolbachia): 150+/−13 Wolbachia per oocyte | oocytes with posterior Wolbachia localization [1]: 93% | oocyte microtubule structure [2]: fibrillar microtubule arrays | effect on Brugia host microtubules (B. malayi microtubules): widespread disruption of B. malayi microtubules | effect on Wolbachia FtsZ (Wolbachia FtsZ): FtsZ was also disrupted in most | potency as disrupter of beta-tubulin (beta-tubulin): far less potent disrupter of beta-tubulin than Albendazole sulfoxide

CCC[S+]([O-])c1ccc2[nH]c(NC(=O)OC)nc2c1 (stereo not drawn) [Albendazole sulfoxide]
Wolbachia per oocyte (Wolbachia): 255+/−27 Wolbachia per oocyte

CCCSc1ccc2nc(NC(=O)OC)[nH]c2c1 [Albendazole]
Wolbachia per oocyte (Wolbachia): 194+/−20 Wolbachia per oocyte | effect on M. tuberculosis FtsZ (M. tuberculosis FtsZ): unaffected

CC[C@@]1(O)C[C@H](O[C@H]2C[C@H](N(C)C)[C@H](O[C@H]3C[C@@H]4O[C@H]5CC(=O)[C@H](C)O[C@H]5O[C@@H]4[C@H](C)O3)[C@H](C)O2)c2c(cc3c(c2O)C(=O)c2c(O)ccc(O)c2C3=O)[C@H]1C(=O)OC [Cinerubin B]
reduction of Wolbachia-infection frequency (screen hit) [3]: hits

COc1cc2c(c(OC)c1OC)-c1ccc(OC)c(=O)cc1[C@@H](NC(C)=O)CC2 [Colchicine, reference compound]
oocytes with posterior Wolbachia localization [1]: 21% | oocyte microtubule structure [2]: devoid of filamentous structure | effect on Brugia host microtubules (B. malayi microtubules): severely disrupted host microtubules | effect on Wolbachia FtsZ (Wolbachia FtsZ): FtsZ remained concentrated near Wolbachia DNA

C[C@H]1c2cccc(O)c2C(=O)C2=C(O)[C@]3(O)C(=O)C(C(N)=O)=C(O)[C@@H](N(C)C)[C@@H]3[C@@H](O)[C@@H]21 [Doxycycline]
Wolbachia per oocyte (Wolbachia): 126+/−11 Wolbachia per oocyte

COC1=C(C)C(=O)C2=C(C1=O)[C@H](COC(N)=O)[C@@]1(O)[C@@H]3[C@H](CN21)N3C (stereo partly drawn) [Mitomycin B]
reduction of Wolbachia-infection frequency (screen hit) [3]: hits

CCN1/C(=C/C(C)=C/c2sc3ccccc3[n+]2CC)Sc2ccccc21.[I-] [NSC96932]
reduction of Wolbachia-infection frequency (screen hit) [3]: hits | antibacterial activity (Streptococcus pyrogenes): exert antibacterial activity

O=[N+]([O-])/C=C/c1cc2ccccc2[nH]1 [NSC150982]
reduction of Wolbachia-infection frequency (screen hit) [3]: anti-Wolbachia

CN1CCN(c2ccc([N+](=O)[O-])c3no[n+]([O-])c23)CC1 [NSC207895]
reduction of Wolbachia-infection frequency (screen hit) [3]: hits

O=C(CSc1nc2ccccc2s1)c1sc2sc3ccccc3[n+]2c1O [NSC339601]
reduction of Wolbachia-infection frequency (screen hit) [3]: anti-Wolbachia
